These results are taken from patent publication US12370192B2, “Azole-fused pyridazin-3(2H)-one derivatives” (TAKEDA PHARMACEUTICAL COMPANY LIMITED, priority 2019, dated 2025).

Molecules are shown by their SMILES.

For this test, the target named is T1, human GPR139 receptor (Homo sapiens, UniProt Q6DWJ6).
T1 construct: expressed in transfected cells; host or cells: T-REx-CHO (Thermo Fisher Scientific), doxycycline-induced
T1 sequence (Q6DWJ6 1-353): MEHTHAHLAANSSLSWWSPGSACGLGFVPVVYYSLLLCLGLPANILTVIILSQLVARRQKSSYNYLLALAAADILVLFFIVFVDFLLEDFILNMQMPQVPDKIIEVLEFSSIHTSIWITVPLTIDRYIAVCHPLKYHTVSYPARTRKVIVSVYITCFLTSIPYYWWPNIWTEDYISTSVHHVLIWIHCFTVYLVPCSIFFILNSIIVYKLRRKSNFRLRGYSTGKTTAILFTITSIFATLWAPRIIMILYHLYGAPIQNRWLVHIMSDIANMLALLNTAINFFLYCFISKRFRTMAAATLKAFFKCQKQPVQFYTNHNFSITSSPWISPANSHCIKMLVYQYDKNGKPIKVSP
The experiment in a line: Measurement of GPR139 Activation Via Calcium Signaling (FLIPR, T-REx-CHO cells). Format: cell-based. Conditions: T-REx-CHO cells stably expressing human GPR139, 11-point dose response, 10 μM maximum concentration, read-out: GPR139 Potency (pEC50) (converted). The protocol: Measurement of GPR139 Activation Via Calcium Signaling
This cell-based assay measures the ability of compounds to activate GPR139 in stably transfected T-REx™-CHO cells. T-REx™-CHO cells (Thermo Fisher Scientific®) are stably expressed with human GPR139 receptor, whose expression is controlled by a tetracycline-inducible element. The cells are cultured in medium containing F-12K nutrient mixture-Kaighn's modification, TripleLE™ Express (1×)-phenol red, Dulbecco's phosphate-buffered saline (1×), 10% tetracycline-free FBS, Blasticidin S HCl (10 μg/mL) and Hygromycin B (200 μg/mL). The cells are introduced into the wells of a 384-well black clear bottom plate (Costar®) at 10,000 cells/well. GPR139 receptor expression is induced with 2 μg/mL doxycycline (Sigma D9891). The plate is allowed to stand at room temperature for 10-30 minutes and then incubated at 37° C. and 5% CO2 for 17 hours prior to assay.
Culture media is removed from cells and 45 μL of 1× calcium dye (2.5 mM) is added to each well and incubated at 37° C. and 5% CO2 for 40 minutes. The plate is removed from the incubator and allowed to stand at RT for 20 minutes without a plate cover prior to measurement of calcium signaling. The calcium dye is prepared by adding 10 mL of assay buffer (Hank's Balanced Salt Solution (1×), 1 mM HEPES at pH 7.4) to one vial of calcium dye (FLIPR® Calcium 5 Assay Kit; Molecular Devices) at room temperature, vortexing the mixture until homogenous, and transferring the dye to a 250 mL flask using 10 mL of assay, buffer to rinse the vial. The dye is subsequently transferred to a conical flask, which is filled to the 200 mL mark with assay buffer, and 1 mL of […] probenecid solution (142.68 mg/mL in 1M NaOH aq) is added.
Example compounds suspended in DMSO are received from compound management in microtiter plates (0.25 μL/well) and are diluted in assay buffer (25 μL). Following incubation of the cell plate, the Example compounds are added to the cells (11-point dose response, 10 μM maximum concentration) using a FLIPR® Tetra system (Molecular Devices) and fluorescence is measured continuously for 1 minute. EC50 curves are generated with a four-parameter logistic equation using GraphPad Prism® 6, and activation of GPR139 for each example compound is reported as pEC50.

`COc1ccc([C@H](C)NC(=O)Cn2nc(C)c3cnn(C(C)(C)C)c3c2=O)cc1` [Example 9, (S)-2-(1-(tert-butyl)-4-methyl-7-oxo-1,7-dihydro-6H-pyrazolo[3,4-d]pyridazin-6-yl)-N-(1-(4-methoxyphenyl)ethyl)acetamide]: the EC50 is 95.5 nM.

As for `Cc1ccc([C@H](C)NC(=O)Cn2ncc3c(c(C)nn3C(C)C)c2=O)cc1` [Example 46, (S)-2-(1-isopropyl-3-methyl-4-oxo-1,4-dihydro-5H-pyrazolo[3,4-d]pyridazin-5-yl)-N-(1-(p-tolyl)ethyl)acetamide], the EC50 was 77.6 nM.

On to `Cc1nn(CC(=O)N[C@@H](C)c2ccc(OC(F)(F)F)cc2)c(=O)c2cnn(C(C)C)c12` [Example 76, (S)-2-(1-isopropyl-7-methyl-4-oxo-1,4-dihydro-5H-pyrazolo[3,4-d]pyridazin-5-yl)-N-(1-(4-(trifluoromethoxy)phenyl)ethyl)acetamide], for which the EC50 is 1020 nM.

For `Cc1ccc([C@H](C)NC(=O)Cn2nc(C)c3c(cnn3C(C)C)c2=O)cc1` [Example 77, (S)-2-(1-isopropyl-7-methyl-4-oxo-1,4-dihydro-5H-pyrazolo[3,4-d]pyridazin-5-yl)-N-(1-(p-tolyl)ethyl)acetamide], the EC50 was 91.2 nM.

With `Cc1nn(CC(=O)N[C@@H](C)c2ccc(C(F)(F)F)cc2)c(=O)c2cnn(C3CC3)c12` [Example 78, (S)-2-(1-cyclopropyl-7-methyl-4-oxo-1,4-dihydro-5H-pyrazolo[3,4-d]pyridazin-5-yl)-N-(1-(4-(trifluoromethyl)phenyl)ethyl)acetamide], the EC50 was 79.4 nM.

Regarding `Cc1nn(CC(=O)N[C@@H](C)c2ccc(OC(F)(F)F)cc2)c(=O)c2cnn(C3CC3)c12` [Example 79, (S)-2-(1-cyclopropyl-7-methyl-4-oxo-1,4-dihydro-5/1-pyrazolo[3,4-d]pyridazin-5-yl)-N-(1-(4-(trifluoromethoxy)phenyl)ethyl)acetamide], the EC50 is 257 nM.

In the case of `Cc1ccc([C@H](C)NC(=O)Cn2nc(C)c3c(cnn3C(C)C)c2=O)c(F)c1` [Example 83, (S)—N-(1-(2-fluoro-4-methylphenyl)ethyl)-2-(1-isopropyl-7-methyl-4-oxo-1,4-dihydro-5H-pyrazolo[3,4-d]pyridazin-5-yl)acetamide], the EC50 was 93.3 nM.

`Cn1nc(C2CC2)c2c(=O)n(CC(=O)N3CCCC3c3ccc(Cl)cc3)ncc21` (stereo not drawn) [Example 84, 5-(2-(2-(4-chlorophenyl)pyrrolidin-1-yl)-2-oxoethyl)-3-cyclopropyl-1-methyl-1,5-dihydro-4H-pyrazolo[3,4-d]pyridazin-4-one]: the EC50 is 407 nM.

For `CC(C)n1ncc2c(=O)n(CC(=O)N[C@@H](C)c3ccc(C(F)(F)F)cc3)ncc21` [Example 86, (S)-2-(1-isopropyl-4-oxo-1,4-dihydro-5H-pyrazolo[3,4-d]pyridazin-5-yl)-N-(1-(4-(trifluoromethyl)phenyl)ethyl)acetamide], the EC50 was 83.2 nM.

On to `CC(C)n1ncc2c(=O)n(CC(=O)N[C@@H](C)c3ccc(OC(F)(F)F)cc3)ncc21` [Example 87, (S)-2-(1-isopropyl-4-oxo-1,4-dihydro-5H-pyrazolo[3,4-d]pyridazin-5-yl)-N-(1-(4-(trifluoromethoxy)phenyl)ethyl)acetamide], for which the EC50 was 126 nM.

`Cc1ccc([C@H](C)NC(=O)Cn2ncc3c(cnn3C3CC3)c2=O)c(F)c1` [Example 90, (S)-2-(1-cyclopropyl-4-oxo-1,4-dihydro-5H-pyrazolo[3,4-d]pyridazin-5-yl)-N-(1-(2-fluoro-4-methylphenyl)ethyl)acetamide]: the EC50 was 58.9 nM.

For `Cc1ccc([C@H](C)NC(=O)Cn2ncc3c(cnn3C3CC3)c2=O)cc1` [Example 91, (S)-2-(1-cyclopropyl-4-oxo-1,4-dihydro-5H-pyrazolo[3,4-d]pyridazin-5-yl)-N-(1-(p-tolyl)ethyl)acetamide], the EC50 was 58.9 nM.

For the compound `Cc1ccc([C@H](C)NC(=O)Cn2ncc3c(c(C4CC4)nn3C(C)C)c2=O)c(F)c1` [Example 95, (S)-2-(3-cyclopropyl-1-isopropyl-4-oxo-1,4-dihydro-5H-pyrazolo[3,4-d]pyridazin-5-yl)-N-(1-(2-fluoro-4-methylphenyl)ethyl)acetamide], the EC50 is 117 nM.

On to `CC(C)n1nc(C2CC2)c2c(=O)n(CC(=O)N[C@@H](C)c3ccc(OC(F)(F)F)cc3)ncc21` [Example 96, (S)-2-(3-cyclopropyl-1-isopropyl-4-oxo-1,4-dihydro-5H-pyrazolo[3,4-d]pyridazin-5-yl)-N-(1-(4-(trifluoromethoxy)phenyl)ethyl)acetamide], for which the EC50 was 501 nM.

Regarding `Cc1ccc([C@H](C)NC(=O)Cn2ncc3c(c(C4CC4)nn3C(C)C)c2=O)cc1` [Example 97, (S)-2-(3-cyclopropyl-1-isopropyl-4-oxo-1,4-dihydro-5H-pyrazolo[3,4-d]pyridazin-5-yl)-N-(1-(p-tolyl)ethyl)acetamide], the EC50 is 49 nM.

On to `CC(C)n1nc(C2CC2)c2c(=O)n(CC(=O)N[C@@H](C)c3ccc(C(F)(F)F)cc3)ncc21` [Example 98, (S)-2-(3-cyclopropyl-1-isopropyl-4-oxo-1,4-dihydro-5H-pyrazolo[3,4-d]pyridazin-5-yl)-N-(1-(4-(trifluoromethyl)phenyl)ethyl)acetamide], for which the EC50 is 275 nM.

For `Cc1nn(C(C)C)c2c(C)nn(CC(=O)N[C@@H](C)c3ccc(OC(F)(F)F)cc3)c(=O)c12` [Example 100, (S)-2-(1-isopropyl-3,7-dimethyl-4-oxo-1,4-dihydro-5H-pyrazolo[3,4-d]pyridazin-5-yl)-N-(1-(4-(trifluoromethoxy)phenyl)ethyl)acetamide], the EC50 was 363 nM.

`Cc1nn(C2CC2)c2cnn(CC(=O)N[C@@H](C)c3ccc(OC(F)(F)F)cc3)c(=O)c12` [Example 109, (S)-2-(1-cyclopropyl-3-methyl-4-oxo-1,4-dihydro-5H-pyrazolo[3,4-d]pyridazin-5-yl)-N-(1-(4-(trifluoromethoxy)phenyl)ethyl)acetamide]: the EC50 was 282 nM.
